Key:
[1] = test system: ds26 (DNA, duplex) CAATCGGATCGAATTCGATCCGATTG; test: fluorescence enhancement; details: K+ 60 mM; Tris-HCl pH 7.4; ligand 5 μM
[2] = test system: dA21 (DNA, single strand) AAAAAAAAAAAAAAAAAAAAA; test: fluorescence enhancement; details: K+ 60 mM; Tris-HCl pH 7.4; ligand 5 μM
[3] = test system: telo21 (DNA, G4) GGGTTAGGGTTAGGGTTAGGG; test: fluorescence titration; details: K+ 60 mM; 10 mM Tris-HCl pH 7.4; ligand 5 μM

Row | binding [1] | binding [2] | K [3] | Structure (SMILES)
1 | weak | weak | 1.44 ± 0.35 × 10^5 M^-1 | CN(C)c1ccc(/C=C/c2cccc(/C=C/c3ccc(N(C)C)cc3)[n+]2C)cc1
2 | – | – | 1.18 ± 0.21 × 10^5 M^-1 | CSc1ccc(/C=C/c2cccc(/C=C/c3ccc(SC)cc3)[n+]2C)cc1

Source: paper PMC9080739 (2018)
